Article PMC11554538, “Region-independent active CNS net uptake of marketed H^+/OC antiporter system substrates” (Frontiers in Cellular Neuroscience, 2024)
Structures can show the parent of a compound that is named as a salt. Where two headings read alike, the source gives them in different places.

How the values were obtained:
[1] = in vitro; details: rat; for fraction unbound at 6 h: pH 7.4, Unbound fraction in plasma, fu,plasma
Experimental: Equilibrium dialysis was employed to determine the fraction of unbound drug in plasma (fu,plasma), homogenates of whole-brain (fu,brain) and the CNS regions of interest (fu,ROI) including the frontal cortex, parietal cortex, cerebellum, striatum, hippocampus, and spinal cord. […] Briefly, a Teflon 96-well plate (model HTD96b, HTDialysis LLC, Gales Ferry, CT, USA) with a cellulose membrane with a 12–14 kDa molecular weight cutoff was used. The cellulose membrane was treated according to the recommendations from the manufacturer before starting the experiment (HTDialysis LLC, Gales Ferry, CT, USA). Fresh plasma (n=3 rats per drug) was obtained on the day of the experiment and the pH of the plasma was adjusted to 7.40 using H3PO4. […] Whole brain and CNS regions of interest (n = 3–4 rats per drug) were homogenized in 1:9 (w:v) PBS pH 7.40. Diluted brain samples were individually spiked to a final concentration of 1,000 nM. Hundred μL of undiluted spiked plasma samples or homogenates were dialyzed against equal volumes of PBS, pH 7.40, for 6 h at 37°C at 200 rpm in an incubator with orbital shaking (MaxQ4450 Thermo Fisher Scientific, NinoLab, Sweden). One to three technical replicates were tested per biological replicate. Drug recovery and thermostability in plasma and brain were analyzed in each experiment by sampling spiked samples before and after the 6-h incubation. […] At the end of the 6-h incubation, 50 μL PBS sample from the receiver chambers was transferred into a Corning® 0.33 mL round-bottom polypropylene 96-well plate (VWR, Stockholm, Sweden) containing 50 μL blank plasma or 1:9 (w:v) brain homogenate using a multichannel pipette. Immediately after this step, 50 μL spiked plasma or brain homogenate was taken from the donor chambers and added to the same 96-well plate containing 50 μL of blank PBS. The 96-well plate was sealed with aluminum film, vortexed and stored at −20°C pending bioanalysis. The fraction of unbound drug in plasma was assessed as a ratio between buffer and plasma concentrations. The unbound fraction of drug in the diluted (D) CNS tissue homogenate (fu,hD) was calculated as: […]

[2] = rat, in vivo; for Cu,brainISF,ss (unbound steady-state concentration in brain interstitial fluid): male, Sprague-Dawley
[3] = male, Sprague-Dawley, rat, in vivo
[4] = rat, 5 h
[5] = in vitro; details: rat
[6] = in vitro; details: rat; remark: listed apart in the source
[7] = cited from earlier work
[8] = in vivo; details: male, Sprague-Dawley, rat, iv
[9] = in vivo; details: male, Sprague-Dawley, rat
[10] = brain homogenate, pH 7.4, Unbound fraction fu,ROI (fu,brain)
[11] = tissue homogenate, pH 7.4, Unbound fraction fu,ROI
[12] = cerebral microdialysis, ref Kitamura et al., 2016

Row | SMILES | fraction unbound at 6 h ([1]; plasma) | Cu,brainISF,ss (unbound steady-state concentration in brain interstitial fluid) ([2]; 4 h) [ng/g brain] | Kp,uu,ROI (unbound ROI-to-plasma concentration ratio) [2] | Ctot,CSF,ss (total CSF concentration at steady state, assumed equal to unbound) ([3]; 4 h) | fraction unbound at 6 h, 1000 nM [5, 10] | fraction unbound at 6 h, 1000 nM [5, 11] | Kp uu at 5 h [6] | Reported Kp,uu [7, 12] | other results
1 | CC(NC(C)(C)C)C(=O)c1cccc(Cl)c1 (centres unmarked) [Bupropion, bupropion hydrochloride] | 0.33 | 9.3±4.6 | exceeding unity | 21.9±5.6 | 0.209 ± 0.031 | 0.142 ± 0.004 |  |  | Unbound fraction in plasma, fu,plasma ([1]; 6 h, pH 7.4): 0.327 ± 0.068; Kp,uu,cell,obs (observed unbound brain intracellular-to-extracellular concentration ratio) [4]: 3.1; Kp uu at 5 h ([6]; Kp,uu,cell,obs (observed unbound brain intracellular-to-extracellular concentration ratio)): 3.12; Reported Kp,uu ([7]; cerebral microdialysis, ref Cremers et al., 2016): 1.9 (Cremers et al., [2016])
2 | CC12CC3CC(C)(C1)CC(N)(C3)C2 [Memantine, memantine hydrochloride] | 0.543 ± 0.037 | 194.3±38.5 | exceeding unity |  |  |  | 2.11 | 1.80 | Kp at 4 h [8]: 41.7; Reported Kp,uu ([7]; cerebral microdialysis, ref Kawase et al., 2021a): 2.03
3 | COc1ccc(CN(CCN(C)C)c2ccccn2)cc1 [Pyrilamine, Pyrilamine maleate] | 0.386 ± 0.093 | 21.6±2.0 | exceeding unity | 7.7±1.9 | 0.093 ± 0.012 | 0.103 ± 0.013 | 1.88 | 2.50 (Kitamura et al., [2016]) | Difference between mean Kp,uu,ROI in the whole brain and Kp,uu,CSF ([3]; 4 h): 2.8 fold
4 | COc1cccc(C2(O)CCCCC2CN(C)C)c1 (centres unmarked) [Tramadol, tramadol hydrochloride] |  |  | exceeding unity |  |  |  |  |  | fraction unbound at 6 h ([1]; undiluted rat plasma pH 7.40, 500 nM (memantine 500 ng/mL), 6 h, 37°C, mean ± SD): 0.827 ± 0.027; Cu,brainISF,ss (unbound steady-state concentration in brain interstitial fluid) [2]: 95.0±9.4; Ctot,CSF,ss (total CSF concentration at steady state, assumed equal to unbound) [3]: 47.7±8.2; Kp uu at 4 h [9]: 1.49 ± 0.49; fraction unbound [5, 10]: 0.496 ± 0.128; fraction unbound [5, 11]: 0.462 ± 0.064; Kp uu [6]: 2.01; Reported Kp,uu ([7]; in vivo): 2.90 (Kitamura et al., [2016]) 2.30 (Kitamura et al., [2014])
